Values quoted from earlier work, collected in patent publication US5252560A, “Cyclic imide derivatives, compositions and use” (Glaxo Inc., priority 1991, dated 1993).

System: arthritis in a collagen-induced model
Conditions: large doses; collagen-induced model in the mouse

In the case of “TIMP: the natural inhibitor of collagenase”, the severity of arthritis is listed as “decreases the severity of arthritis”.
